Measurements taken from article PMC2661360 (PLoS ONE, 2009).
Entries after “also recorded” stand apart in the source; their conditions may differ. Square brackets hold non-standard residues; d marks the D form. Peptide text beside a SMILES is read from it. * marks the point of attachment. Sta = CC(C)C[C@H](N)[C@@H](O)CC(=O)O; Isovaleryl = CC(C)CC(=O)*

Legend:
Sap9 [1] = test: purified recombinant Sap9 protease; settings: C. albicans, up to 2 h
[2] = C. albicans whole cells (SC5314) in PBS, 2×10^8 cells/ml; settings: 37°C, up to 2 h
[3] = C. albicans whole cells (2×10^8 cells/ml) in PBS; settings: Candida albicans, 37°C, up to 2 h
Sap5 [4] = test: Sap5 protease; settings: C. albicans, up to 2 h
[5] = C. albicans cells in PBS with pepstatin A; settings: 37°C, up to 2 h
Sap10 = Sap10 (Candida albicans, UniProt Q5A651); test: Inhibition of Sap10 degradation of Hst-5; assay type: biochemical; parameters: made in house; host or cells: Pichia pastoris GS115 (plasmid pKJ113); settings: purified Sap10 protease; SDS-PAGE (Figure 3D)
Source text: (§1) Following, samples were processed as described above.

C. albicans cells = test: Inhibition of C. albicans degradation of Hst-5 by protease inhibitors; assay type: cell-based, Candida albicans; settings: 1 mM inhibitor in the degradation assay; SDS-PAGE (Figure 3B)
Sap9 [6] = molecular target: T1, Sap9 (Candida albicans, UniProt Q59SU1); test: Inhibition of Sap9 degradation of Hst-5; assay type: biochemical; parameters: made in house; host or cells: Pichia pastoris GS115 (plasmid pKJ113); settings: purified Sap9 protease; SDS-PAGE (Figure 3D)
Source text: as §1

[7] = system: cell-free supernatants of C. albicans cell suspensions; test: Degradation assay of Hst-5 with cell-free supernatants; parameters: species or system Candida albicans; settings: C. albicans supernatant compared to whole C. albicans cells; SDS-PAGE (Figure 3C)
Procedure: Degradation assays were performed by incubating Hst-5 with 100 µl of standardized cell concentrations of the C. albicans strains in PBS for 2 h at 37°C. Unless otherwise stated, C. albicans strains were used in experiments at a cell concentration of 2×10^8 cells/ml (generating two visible bands). Protease K was used as a positive control and negative controls with peptide and no C. albicans were included. Following incubation, samples were collected, heated at 100°C to remove proteolytic activity and analyzed by sodium dodecyl sulfate polyacrylamide gel electrophoresis (SDS-PAGE). Experiments were also performed using increasing C. albicans cell densities and at different time points where samples were collected following 20, 60 and 120 minutes incubation. In addition, assays were performed using cell-free supernatants from C. albicans cell suspensions to determine whether the proteolytic substance is secreted.

Sap5 [8] = molecular target: Sap5 (Candida albicans, UniProt P43094); settings: data not shown
Saccharomyces cerevisiae = test: Degradation of Hst-5 by Saccharomyces cerevisiae; settings: compared to C. albicans (Figure S2)
Sap9 [9] = molecular target: T1, Sap9; settings: MALDI-TOF/TOF MS peptide mapping
Source text: The recombinant proteases Sap9 and Sap10 were produced in Pichia pastoris as described previously, [45]. Briefly, P. pastoris strain GS115 was transformed with the expression plasmid pKJ113 carrying truncated SAP9 and SAP10 versions lacking signal peptide- and GPI anchor consensus- encoding sequences. Proteases were recovered from culture supernatants and purified via anion exchange chromatography. Activity of proteases was verified by using a standard fluorescence casein based assay (Molecular Probes). Purified proteases (0.05, 0.1, 0.25 and 0.5 µg) were incubated with Hst-5 for 2 h. Following, samples were processed as described above.
Supernatants from the various degradation reactions were subjected to peptide mapping in order to determine the sequences of cleaved fragments, identify cleavage sites on the Hst-5 as well as other cleavage products that may not be visible by electrophoresis. […] Peptide samples were mixed with saturated α-cyano-4-hydroxycinnamic acid in acetonitrile∶trifluoroacetic acid 0.1% (1∶2 v/v) then measured on an Ultraflex MALDI-ToF/ToF device using flexControl 3.0 for data collection and flexAnalysis 3.0 for spectra analysis and peaklist generation (Bruker Daltonics GmbH, Germany). […]

[10] = system: C. albicans SAP null mutants; parameters: species or system Candida albicans; settings: sap10 single mutant compared to parent strain CAI4 and SC5314 (Figure 4)
Procedure: (§2) The C. albicans SC5314 strain, the C. albicans SAP null mutants sap1–3 triple mutant (lacking SAP1–3), sap4–6 triple mutant (lacking SAP4–6), sap9 single mutant (lacking SAP9), sap10 single mutant (lacking SAP10) and sap9,10 double mutant (lacking both SAP9 and SAP10), as well as the parent strain CAI4 (URA-) were used in these experiments, [43], [44]. Strains were grown in YPD broth (Difco Laboratories, Detroit, MI) overnight at 30°C with shaking and cells were equilibrated in fresh media to an optical density of 1.0 at OD600. High purity Hst-5, proteinase K, PMSF and pepstatin A were purchased from Sigma (Sigma-Aldrich Chemical, St. Louis, MO). Histatin-5 was reconstituted in 1 mM phosphate-buffered saline (PBS) and used at a final concentration of 150 µg/ml (within the range of physiological salivary concentration) in all experiments unless otherwise stated. All experiments were performed on at least three separate occasions.

C. albicans whole cells = test: Degradation assay of Hst-5 with C. albicans whole cells; parameters: species or system Candida albicans
Procedure: as §2
The intensity of the bands on the Coomassie-stained gels was assessed by densitometric analysis using a MultiImager scanner (Bio-Rad Laboratories, Hercules California) and images analyzed with the PDQuest version 7.0 (BioRAd).

proteinase K = proteinase K (Parengyodontium album, UniProt P06873); test: Inhibition of proteinase K degradation of Hst-5 by protease inhibitors; assay type: biochemical; parameters: purchased Sigma (Sigma-Aldrich Chemical, St. Louis, MO); settings: 1 mM inhibitor; SDS-PAGE (Figure 3A)
proteinase K, sequence (P06873 106-384): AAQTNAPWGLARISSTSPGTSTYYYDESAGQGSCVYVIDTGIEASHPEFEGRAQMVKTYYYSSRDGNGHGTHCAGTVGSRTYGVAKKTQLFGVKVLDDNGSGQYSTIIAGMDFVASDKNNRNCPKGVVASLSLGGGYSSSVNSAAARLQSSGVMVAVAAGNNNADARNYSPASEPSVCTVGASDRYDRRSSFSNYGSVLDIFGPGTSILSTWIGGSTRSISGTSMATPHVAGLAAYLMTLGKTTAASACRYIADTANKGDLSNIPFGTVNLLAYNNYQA

T1 sequence (Q59SU1 18-520): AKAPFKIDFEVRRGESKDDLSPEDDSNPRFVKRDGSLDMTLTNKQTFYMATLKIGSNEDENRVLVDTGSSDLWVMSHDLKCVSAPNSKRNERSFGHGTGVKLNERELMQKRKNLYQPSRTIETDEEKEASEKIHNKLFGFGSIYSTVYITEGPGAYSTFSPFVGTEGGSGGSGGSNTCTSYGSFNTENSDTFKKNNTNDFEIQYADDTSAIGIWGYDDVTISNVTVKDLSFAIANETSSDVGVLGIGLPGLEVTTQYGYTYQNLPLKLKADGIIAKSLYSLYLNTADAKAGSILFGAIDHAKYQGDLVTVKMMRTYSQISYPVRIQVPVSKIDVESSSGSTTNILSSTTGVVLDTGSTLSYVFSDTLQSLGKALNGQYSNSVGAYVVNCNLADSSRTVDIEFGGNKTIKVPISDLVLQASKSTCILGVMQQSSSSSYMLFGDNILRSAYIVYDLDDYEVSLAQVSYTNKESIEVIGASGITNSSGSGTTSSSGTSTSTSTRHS
Sap10, sequence (Q5A651 21-429): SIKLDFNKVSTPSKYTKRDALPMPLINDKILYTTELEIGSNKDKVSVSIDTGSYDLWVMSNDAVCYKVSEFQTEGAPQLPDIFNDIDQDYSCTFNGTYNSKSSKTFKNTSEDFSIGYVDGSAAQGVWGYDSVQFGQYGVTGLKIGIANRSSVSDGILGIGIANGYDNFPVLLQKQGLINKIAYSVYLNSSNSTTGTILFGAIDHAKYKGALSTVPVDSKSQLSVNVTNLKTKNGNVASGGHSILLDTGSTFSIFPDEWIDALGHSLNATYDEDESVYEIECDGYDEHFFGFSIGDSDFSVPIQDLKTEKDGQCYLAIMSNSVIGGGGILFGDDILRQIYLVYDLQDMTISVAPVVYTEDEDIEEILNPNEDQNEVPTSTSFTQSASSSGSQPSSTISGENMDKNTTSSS
Sap5 (Candida albicans, UniProt P43094), sequence (P43094 77-418): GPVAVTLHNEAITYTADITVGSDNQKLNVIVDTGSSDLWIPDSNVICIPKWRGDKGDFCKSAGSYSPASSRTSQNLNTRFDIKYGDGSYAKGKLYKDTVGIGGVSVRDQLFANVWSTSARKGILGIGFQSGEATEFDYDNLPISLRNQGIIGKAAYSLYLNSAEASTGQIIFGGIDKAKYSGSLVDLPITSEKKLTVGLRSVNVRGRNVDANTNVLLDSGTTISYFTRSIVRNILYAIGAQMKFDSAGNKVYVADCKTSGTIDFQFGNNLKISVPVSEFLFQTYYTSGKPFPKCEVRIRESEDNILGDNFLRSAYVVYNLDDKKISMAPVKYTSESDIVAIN

With DSHAKRHHGYKRKFHEKHHSHRGY the cleaved bond (Sap9 [1]) was “R12-Lys13”, the cleaved bond [2] was “R12-Lys13; also recorded: K17-H18” and the cleaved bond [3] was “K17-H18”. The not cleaved (Sap5 [4]) was “did not degrade Hst-5” and the not cleaved [5] was “salvaged Hst-5 from degradation”.
For `CC(C)CC(=O)N[C@H](C(=O)N[C@H](C(=O)N[C@@H](CC(C)C)[C@@H](O)CC(=O)N[C@@H](C)C(=O)N[C@@H](CC(C)C)[C@@H](O)CC(=O)O)C(C)C)C(C)C` [pepstatin A] (Isovaleryl-VV[Sta]A[Sta]-OH), the “inhibition of Sap10 degradation of Hst-5” value (Sap10) was “inhibition of degradation; also recorded: inhibited”, the “inhibition of C. albicans degradation of Hst-5” value (C. albicans cells) was “inhibition of C. albicans degradation; also recorded: resulted in inhibition of degradation; also recorded: salvaged Hst-5 from degradation” and the “inhibition of Sap9 degradation of Hst-5” value (Sap9 [6]) was “inhibition of degradation; also recorded: inhibited”.
With `C[C@H](NC(=O)[C@H](Cc1cnc[nH]1)NC(=O)[C@H](CO)NC(=O)[C@@H](N)CC(=O)O)C(=O)N[C@@H](CCCCN)C(=O)N[C@@H](CCCNC(=N)N)C(=O)N[C@@H](Cc1cnc[nH]1)C(=O)N[C@@H](Cc1cnc[nH]1)C(=O)NCC(=O)N[C@@H](Cc1ccc(O)cc1)C(=O)N[C@@H](CCCCN)C(=O)N[C@@H](CCCNC(=N)N)C(=O)N[C@@H](CCCCN)C(=O)N[C@@H](Cc1ccccc1)C(=O)N[C@@H](Cc1cnc[nH]1)C(=O)N[C@@H](CCC(=O)O)C(=O)N[C@@H](CCCCN)C(=O)N[C@@H](Cc1cnc[nH]1)C(=O)N[C@@H](Cc1cnc[nH]1)C(=O)N[C@@H](CO)C(=O)N[C@@H](Cc1cnc[nH]1)C(=O)N[C@@H](CCCNC(=N)N)C(=O)NCC(=O)N[C@@H](Cc1ccc(O)cc1)C(=O)O` [Hst-5, Histatin-5] the “degradation of Hst-5 by cell-free supernatants” value [7] was “significantly less degradation; also recorded: Minimal degradation”, the “degradation of Hst-5 by Sap5 purified protease” value (Sap5 [8]) was “did not degrade” and the “degradation of Hst-5 by S. cerevisiae” value (Saccharomyces cerevisiae) was “significant enhanced degradation”. The “cleavage site of Sap9 on Hst-5” value (Sap9 [9]) was “Lys13”, the “degradation of Hst-5 by sap10 mutant” value [10] was “some degree of inhibition” and the “degradation of Hst-5 by C. albicans” value (C. albicans whole cells; 1×10^2 cells/ml and below, physiological concentrations of Hst-5) was “unable to degrade”. The “degradation of Hst-5 by C. albicans” value (C. albicans whole cells; 1×10^6 cells/ml, 2 h 37°C, SDS-PAGE) was “no degradation”, the “degradation of Hst-5 by C. albicans” value (C. albicans whole cells; 2×10^9 cells/ml, 2 h 37°C, SDS-PAGE) was “significant degradation” and the “degradation of Hst-5 by C. albicans over time” value (C. albicans whole cells; 20 mins incubation at 37°C, SDS-PAGE, lower weight product) was “Minor degradation”. For the same compound, the “degradation of Hst-5 by C. albicans over time” value (C. albicans whole cells; 1 h and 2 h incubation at 37°C, SDS-PAGE) was “significantly increasing level of degradation”, the “time in which C. albicans degrades Hst-5” value (C. albicans whole cells; C. albicans cells, 37°C, PBS, SDS-PAGE (Figure 2A)) was at most 20 min and the “degradation of Hst-5 by C. albicans cells” value (C. albicans whole cells; Hst-5 150 µg/ml in PBS with 100 µl C. albicans cells (2×10^8 cells/ml unless stated), 2 h 37°C, SDS-PAGE, densitometry, at least three occasions) was “efficiently and rapidly degrade”. For the same compound, the “level of degradation versus Hst-5 concentration” value (C. albicans whole cells; Hst-5 50–200 µg/ml, data not shown) was “inversely proportional to Hst-5 concentration” and the “degradation of Hst-5 by C. glabrata” value (Candida glabrata) was “significant enhanced degradation”.
For `O=S(=O)(F)Cc1ccccc1` [PMSF], the “inhibition of C. albicans degradation of Hst-5” value (C. albicans cells) was “not and failed to inhibit” and the “inhibition of proteinase K degradation of Hst-5” value (proteinase K) was “inhibition of degradation; also recorded: inhibited”.
